Source: ChEMBL document CHEMBL5465560, “Selectivity Literature for EUbOPEN Chemogenomic Library” (2024)
Each block holds one compound with its values, some of them ahead of it.

How the values were obtained:
[1] = system: T1, Discoidin domain-containing receptor 2 (Homo sapiens), Q16832 [T654M]; assay: Selectivity interaction (LanthaScreen Eu Kinase Binding Assay) EUB0001632a DDR2; settings: at 10 µM
T1 sequence (whole entry): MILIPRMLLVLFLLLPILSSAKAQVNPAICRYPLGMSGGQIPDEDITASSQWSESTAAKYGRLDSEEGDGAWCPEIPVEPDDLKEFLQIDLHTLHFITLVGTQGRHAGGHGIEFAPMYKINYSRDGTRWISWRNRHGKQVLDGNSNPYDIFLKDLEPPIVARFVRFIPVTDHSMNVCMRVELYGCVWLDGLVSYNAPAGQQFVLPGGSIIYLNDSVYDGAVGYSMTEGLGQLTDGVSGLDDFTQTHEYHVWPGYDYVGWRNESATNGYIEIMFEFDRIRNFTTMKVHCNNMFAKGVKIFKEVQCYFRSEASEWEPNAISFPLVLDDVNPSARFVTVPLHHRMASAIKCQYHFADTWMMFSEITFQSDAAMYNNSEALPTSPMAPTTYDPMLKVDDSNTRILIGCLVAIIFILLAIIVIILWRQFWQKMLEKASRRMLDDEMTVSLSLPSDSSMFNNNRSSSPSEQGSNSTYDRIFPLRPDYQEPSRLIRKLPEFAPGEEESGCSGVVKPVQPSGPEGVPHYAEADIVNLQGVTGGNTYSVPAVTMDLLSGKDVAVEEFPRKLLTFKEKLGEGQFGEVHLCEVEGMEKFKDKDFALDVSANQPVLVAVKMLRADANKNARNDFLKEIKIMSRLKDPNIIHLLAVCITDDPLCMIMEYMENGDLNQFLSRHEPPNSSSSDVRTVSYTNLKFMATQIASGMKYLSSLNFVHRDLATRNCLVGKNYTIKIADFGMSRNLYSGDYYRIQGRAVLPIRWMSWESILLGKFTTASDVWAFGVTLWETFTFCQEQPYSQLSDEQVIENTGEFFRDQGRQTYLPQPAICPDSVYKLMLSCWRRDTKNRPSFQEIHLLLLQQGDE

[2] = biological target: T2, 3-phosphoinositide-dependent protein kinase 1 (Homo sapiens) (UniProt O15530); assay: Selectivity interaction (KinomeScan (DiscoverX)) EUB0000695a PDPK1; settings: at 100 nM
T2 sequence (whole entry): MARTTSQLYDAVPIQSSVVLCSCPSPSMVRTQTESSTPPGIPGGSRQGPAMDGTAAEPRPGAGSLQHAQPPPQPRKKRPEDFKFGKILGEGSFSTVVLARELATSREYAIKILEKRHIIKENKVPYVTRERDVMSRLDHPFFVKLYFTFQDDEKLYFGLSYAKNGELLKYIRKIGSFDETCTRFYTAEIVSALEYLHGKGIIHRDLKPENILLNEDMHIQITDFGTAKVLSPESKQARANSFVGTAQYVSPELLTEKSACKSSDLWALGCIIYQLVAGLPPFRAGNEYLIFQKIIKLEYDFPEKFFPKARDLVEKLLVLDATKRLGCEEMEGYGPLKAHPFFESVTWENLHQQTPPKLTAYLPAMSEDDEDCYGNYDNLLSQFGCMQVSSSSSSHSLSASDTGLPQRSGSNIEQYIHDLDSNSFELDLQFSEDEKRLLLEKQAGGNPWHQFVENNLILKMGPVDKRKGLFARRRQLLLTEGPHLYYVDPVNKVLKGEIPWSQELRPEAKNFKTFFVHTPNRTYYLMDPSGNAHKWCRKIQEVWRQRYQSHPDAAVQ

[3] = biological target: T3, Cyclin-dependent kinase-like 5 (Homo sapiens) (UniProt O76039); assay: Selectivity interaction (KinomeScan (DiscoverX)) EUB0000045b CDKL5
T3 sequence (whole entry): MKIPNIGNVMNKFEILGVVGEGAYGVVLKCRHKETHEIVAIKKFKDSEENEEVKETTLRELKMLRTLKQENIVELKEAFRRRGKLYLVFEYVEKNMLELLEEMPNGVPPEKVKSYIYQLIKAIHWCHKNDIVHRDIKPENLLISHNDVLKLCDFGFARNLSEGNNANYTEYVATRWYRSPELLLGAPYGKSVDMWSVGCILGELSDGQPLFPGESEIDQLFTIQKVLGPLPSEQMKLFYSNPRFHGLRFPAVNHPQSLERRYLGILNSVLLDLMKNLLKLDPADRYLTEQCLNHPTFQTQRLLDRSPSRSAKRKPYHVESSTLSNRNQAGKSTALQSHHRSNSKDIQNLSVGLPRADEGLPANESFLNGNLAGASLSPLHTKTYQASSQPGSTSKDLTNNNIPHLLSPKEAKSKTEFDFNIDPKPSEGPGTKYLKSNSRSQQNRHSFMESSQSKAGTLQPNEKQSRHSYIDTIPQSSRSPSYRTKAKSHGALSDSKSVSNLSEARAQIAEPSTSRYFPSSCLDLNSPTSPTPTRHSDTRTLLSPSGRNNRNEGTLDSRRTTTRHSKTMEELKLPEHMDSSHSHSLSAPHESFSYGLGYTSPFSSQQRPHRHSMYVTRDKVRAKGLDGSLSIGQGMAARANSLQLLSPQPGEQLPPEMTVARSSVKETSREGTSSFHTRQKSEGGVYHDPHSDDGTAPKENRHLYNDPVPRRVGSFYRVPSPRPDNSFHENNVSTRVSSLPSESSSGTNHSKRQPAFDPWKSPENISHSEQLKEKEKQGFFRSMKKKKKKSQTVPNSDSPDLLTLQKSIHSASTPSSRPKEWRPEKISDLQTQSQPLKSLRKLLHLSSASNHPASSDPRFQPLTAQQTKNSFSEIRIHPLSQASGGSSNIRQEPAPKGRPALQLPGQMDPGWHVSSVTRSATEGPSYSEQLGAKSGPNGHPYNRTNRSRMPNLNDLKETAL

- % of inhibition [1]: -29.9%
Compound: Cn1cc(-n2cnc3c(NCc4nc5cc(Cl)c(Cl)cc5[nH]4)nc(N4CCOCC4)nc32)cn1

Compound: Cc1cc(F)c(C(=O)Nc2cccc(-c3nncn3C(C)C)n2)cc1-n1cnc(C2CC2)c1
- % of control [2]: 82%

Compound: C=CC(=O)Nc1cc(-n2c(=O)ccc3cnc4ccc(-c5ccc(NS(C)(=O)=O)cc5)cc4c32)ccc1C
- % of control ([3]; at 1 µM): 100%
- % of control ([3]; at 10 µM): 81%
